We go through four compounds from patent US9289471B2, “Product and process for liquefaction of mucus or sputum” (National Jewish Health, priority 2002, dated 2016).

This test is described as follows: Compaction assay: percent liquid fraction of CF sputum. Set-up: species or system human. The conditions noted are these: for percent liquid fraction: 20 min (FIG. 3A); for liquefying sputum: concentrations below 1 mM; for 3 day range of percent of sputum in the liquid state: donor B; for range of percent liquid values: donor C. The method, then:
CF sputum stored at −80° C. was thawed at room temperature and aliquoted into 1.5 ml Eppendorf centrifuge tubes at volumes of 275 μl using a positive displacement pipette (Rainin, Emeryville, Calif.). Sputum samples were subjected to either diluent (H2O), Trx+TR+NADPH, GSH+glutathione reductase+NADPH, dithiothreitol (DTT) or N-acetylcysteine treatment by the addition of 25 μl of H2O containing the appropriate molar concentration of each agent. After brief vortexing (˜1 second), sample tubes were loaded onto a microtube rotisserie (Barnstead, Dubuque, Iowa) and incubated at 37° C. for 20 minutes. Samples were then processed for compaction assay according to methodology originated by Daugherty et al. (Daugherty et al., Biomaterials 16:553-558, 1995). To perform the assay, the contents of each sample were loaded into 100 μl glass micro-capillary tubes (Fisher Scientific) that had been previously welded to 200 μl pipette tips in order to achieve a tight fit. Three modified capillary tubes were used to draw up >90% of each sputum sample. Capillary tubes were then removed from their pipette tip, sealed with clay, and centrifuged for 10 minutes in a hematocrit centrifuge (IEC, Needham Heights, Mass.), followed by measurement of the length in millimeters of the gel (solid) and aqueous (liquid) phases in each tube. The percent liquid fraction of each capillary tube was calculated by dividing aqueous phase length by total length (gel+aqueous)×100. The three measurements of the liquid fraction (%) derived from each sample were then averaged to generate a single value for each treatment condition.
Due to abnormal ion transport caused by defects in the CFTR gene, airway secretions in CF patients are often desiccated. As a consequence, purulent CF sputum is comprised largely of a rigid and nonflowing biopolymer matrix, often referred to as gel phase, and lesser amounts of soluble, liquid phase. To assess the effect of Trx on the ratios of these two phases in sputum, compaction assay measurements were performed. […] After 20 minute incubation, the liquid fraction of each sample was determined by compaction assay.
To examine the effect of NADPH, additional samples from different donors were treated with 30 μM Trx, 0.1 μM TR and either 0, 0.2, 0.6, 1.0 or 2 mM NADPH for 20 minutes.
To assess the reproducibility of compaction assay measurements, sputum samples from three different CF donors were separated into aliquots and frozen. Specifically, freshly isolated CF sputum from three different donors (A, B, C) was separated into 275 μl aliquots and frozen. […] Results obtained from three independent experiments performed on each donor sample were used to evaluate assay reproducibility. On three consecutive days, aliquots were thawed, and treated with water, Trx and its reducing system, dithiothreitol (DTT), or no treatment.
The effectiveness of Trx in liquefying sputum was compared with other monothiol and dithiol reducing agents. Sputum samples were aliquoted and treated with Trx or GSH for 20 minutes and percent liquid determined by compaction assay. Initial compaction assay experiments compared the potencies of the Trx and GSH reducing systems in liquefaction of sputum in the presence of equimolar concentrations of NADPH. […] The analysis of Trx and NAC efficacy also was determined after 20 minute incubation, but on a different set of sputum samples.

On to `N[C@@H](CCC(=O)N[C@@H](CS)C(=O)NCC(=O)O)C(=O)O` [GSH, glutathione], for which the liquefying sputum entry is “ineffective”. Besides, for the setting “30 μM GSH + 0.1 μM Gr + 2 mM NADPH”, the percent liquid fraction was 7.8±5.7%. Besides, for the setting “100 μM GSH + 0.1 μM Gr + 2 mM NADPH”, the percent liquid fraction amounted to 15.9±9.3%. Further, the percent liquid fraction (1 mM GSH + 0.1 μM Gr + 2 mM NADPH) came to 27.6±3.9%. In addition, under “GSH at comparable or higher concentrations up to 1 mM”, the “significance of increase in liquid fraction versus control” value was “a significant increase in the liquid fraction of sputum was not observed”.
With `NC(=O)C1=CN([C@@H]2O[C@H](COP(=O)(O)OP(=O)(O)OC[C@H]3O[C@@H](n4cnc5c(N)ncnc54)[C@H](OP(=O)(O)O)[C@@H]3O)[C@@H](O)[C@H]2O)C=CC1` [NADPH, β-Nicotinamide adenine dinucleotide phosphate, reduced form], the “increase in proportion of sputum present in the liquid fraction” value (NADPH in the absence of Trx (not shown)) is listed as “did not cause any increase”.
For the compound `O[C@H](CS)[C@H](O)CS` (racemic) [DTT, dithiothreitol], for the setting “1 mM DTT”, the “3 day range of percent of sputum in the liquid state” value is 24-31% and the “range of percent liquid values” was 57-61%. Under “5 mM DTT”, the “3 day range of percent of sputum in the liquid state” value is recorded as 42-57% and the “range of percent liquid values” is given as 77-79%. In addition, the “sputum liquefying effectiveness compared with NAC” value (equimolar basis (FIGS. 2 and 3; data not shown)) is reported as “more effective on an equimolar basis than NAC”.
Take `CC(=O)N[C@@H](CS)C(=O)O` [N-acetylcysteine]: the liquefying sputum entry is “ineffective”. The “effectiveness in causing liquefaction of sputum compared with Trx” value (range of concentrations, 20 min, 4 experiments (FIG. 3B)) was “less effective than Trx”.
